From patent publication US9321721B2, “Kinase inhibitors” (Allergan, Inc., priority 2013, dated 2016) come the findings set out here.

Entries after “also recorded” stand apart in the source; their conditions may differ.

The target in this assay is VEGFR2 (purified cytoplasmic domain KDR protein) (Homo sapiens (Human), UniProt P35968). The assay can be described thus: VEGFR2 Kinase Assay (biochemical KDR kinase assay, ELISA readout). The following applies: for IC50: 2.7 μM ATP, poly-Glu-Tyr (4:1) substrate, 15 minute incubation at 30° C.; for VEGFR2 potency as shown in this assay (in words): qualitative ranking based on the Table 2 data. Here is the method: VEGFR2 kinase potency of select analogs was determined by the following assay:
Biochemical KDR kinase assays were performed in 96 well microtiter plates that were coated overnight with 75 μg/well of poly-Glu-Tyr (4:1) in 10 mM Phosphate Buffered Saline (PBS), pH 7.4. The coated plates were washed with 2 mls per well PBS+0.05% Tween-20 (PBS-T), blocked by incubation with PBS containing 1% BSA, then washed with 2 mls per well PBS-T prior to starting the reaction. Reactions were carried out in 100 μL reaction volumes containing 2.7 μM ATP in kinase buffer (50 mM Hepes buffer pH 7.4, 20 mM MgCl2, 0.1 mM MnCl2 and 0.2 mM Na3VO4). Test compounds were reconstituted in 100% DMSO and added to the reaction to give a final DMSO concentration of 5%. Reactions were initiated by the addition 20 ul per well of kinase buffer containing 200-300 ng purified cytoplasmic domain KDR protein (BPS Bioscience, San Diego, Calif.). Following a 15 minute incubation at 30° C., the reactions were washed 2 mls per well PBS-T. 100 μl of a monoclonal anti-phosphotyrosine antibody-peroxidase conjugate diluted 1:10,000 in PBS-T was added to the wells for 30 minutes. Following a 2 mls per well wash with PBS-Tween-20, 100 μl of O-Phenylenediamine Dihydrochloride in phosphate-citrate buffer, containing urea hydrogen peroxide, was added to the wells for 7-10 minutes as a colorimetric substrate for the peroxidase. The reaction was terminated by the addition of 100 μl of 2.5N H2SO4 to each well and read using a microplate ELISA reader set at 492 nm. IC50 values for compound inhibition were calculated directly from graphs of optical density (arbitrary units) versus compound concentration following subtraction of blank values.
A general note: ELISA stands for enzyme-linked immunosorbent assay.

Sequence of VEGFR2 (purified cytoplasmic domain KDR protein) (P35968 786-1356): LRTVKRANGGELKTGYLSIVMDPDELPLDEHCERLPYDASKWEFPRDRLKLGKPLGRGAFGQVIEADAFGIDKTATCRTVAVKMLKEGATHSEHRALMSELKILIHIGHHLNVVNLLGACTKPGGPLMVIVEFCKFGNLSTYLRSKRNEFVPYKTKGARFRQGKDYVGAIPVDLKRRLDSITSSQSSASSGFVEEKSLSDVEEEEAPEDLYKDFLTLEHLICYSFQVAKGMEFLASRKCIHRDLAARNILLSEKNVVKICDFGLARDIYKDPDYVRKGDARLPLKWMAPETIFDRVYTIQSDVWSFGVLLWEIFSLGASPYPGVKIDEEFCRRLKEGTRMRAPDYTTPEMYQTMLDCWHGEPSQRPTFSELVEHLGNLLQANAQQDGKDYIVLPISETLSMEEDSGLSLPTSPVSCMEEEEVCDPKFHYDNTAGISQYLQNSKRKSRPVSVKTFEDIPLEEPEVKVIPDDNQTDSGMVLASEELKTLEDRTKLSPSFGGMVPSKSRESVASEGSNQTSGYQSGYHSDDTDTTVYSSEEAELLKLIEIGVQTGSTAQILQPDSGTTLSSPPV

The term IC50 denotes the concentration that gives 50% inhibition. Read a high IC50 as weaker potency. Consider `NC(=O)/C=C/c1ccc(NC(=O)Nc2cc(C(F)(F)F)ccc2F)cc1` [Example 6, (2E)-3-{4-[({[2-fluoro-5-(trifluoromethyl)phenyl]amino}carbonyl)amino]phenyl}acrylamide], for which the IC50 was above 10000 nM. As for `NC(=O)/C=C/c1cccc(NC(=O)Nc2cc(C(F)(F)F)ccc2F)c1` [Example 5, (2E)-3-{3-[({[2-fluoro-5-(trifluoromethyl)phenyl]amino}carbonyl)amino]phenyl}acrylamide], the IC50 was above 10000 nM. Turning to `NC(=O)/C=C\c1ccc(NC(=O)Nc2cc(C(F)(F)F)ccc2F)cc1` [Example 7, (2Z)-3-{4-[({[2-fluoro-5-(trifluoromethyl)phenyl]amino}carbonyl)amino]phenyl}acrylamide], the IC50 came out at 2790 nM and the “VEGFR2 potency as shown in this assay (in words)” value (“VEGFR2 potency as shown” below) was “excellent VEGFR2 potency”. For the compound `COc1ccc(/C(=C/C(N)=O)c2ccc(NC(=O)Nc3cc(C(F)(F)F)ccc3F)cc2)cc1` [Example 3, (2E)-3-{4-[({[2-fluoro-5-(trifluoromethyl)phenyl]amino}carbonyl)amino]phenyl}-3-(4-methoxyphenyl)acrylamide], the IC50 came to 457 nM and the “VEGFR2 potency as shown” value is given as “excellent VEGFR2 potency; also recorded: best VEGFR2 potency”. As to `COc1cccc(/C(=C/C(N)=O)c2ccc(NC(=O)Nc3cc(C(F)(F)F)ccc3F)cc2)c1` [Example 2, (2E)-3-{4-[({[2-fluoro-5-(trifluoromethyl)phenyl]amino}carbonyl)amino]phenyl}-3-(3-methoxyphenyl)acrylamide], half-maximal inhibition (IC50) was put at 945 nM and the “VEGFR2 potency as shown” value was “excellent VEGFR2 potency”. The compound `NC(=O)/C=C(/c1ccccc1)c1cccc(NC(=O)Nc2cc(C(F)(F)F)ccc2F)c1` [Example 4, (2Z)-3-{3-[({[2-fluoro-5-(trifluoromethyl)phenyl]amino}carbonyl)amino]phenyl}-3-phenylacrylamide] showed an IC50 above 10000 nM.

As to `NC(=O)/C=C(/c1ccccc1)c1ccc(NC(=O)Nc2cc(C(F)(F)F)ccc2F)cc1` [Example 1, (2Z)-3-{4-[({[2-fluoro-5-(trifluoromethyl)phenyl]amino}carbonyl)amino]phenyl}-3-phenylacrylamide], the IC50 came to 626 nM and the “VEGFR2 potency as shown” value is “excellent VEGFR2 potency”.
